Where “and” joins values, the source holds several entries; their conditions need not be identical. Identical values can stand only once.

The test system of one experiment is HCT116p53+/+ cell. Kind of experiment: MTT cell proliferation at single concentration. The experiment is classed as cell-based, human. As to the method:
Cell proliferation was assessed by a MTT assay. Cancer cells were seeded in 96-well microtitre plates and, after overnight attachment, treated with GSTO1 inhibitors. After 72 h, MTT solution (3 mg ml^−1; 20 μl) was added to each well and cells were incubated for 3 h at 37 °C. After incubation, media from each well was removed and the dark blue formazan crystals formed by live cells were dissolved in DMSO (150 μl per well). The absorbance intensity was measured at 570 nm on a microplate reader (Molecular Devices, Sunnyvale, CA, USA). Cell viability after 24 h treatment was assessed using ApoTox-Glo triplex assay (Promega) according to the manufacturer's protocol. At least three independent dose–response experiments with each concentration tested in triplicate were performed for each cell line.

For experiment [1], the target named is T1, GSTO1 (Homo sapiens, UniProt P78417).
T1 sequence (P78417 1-241): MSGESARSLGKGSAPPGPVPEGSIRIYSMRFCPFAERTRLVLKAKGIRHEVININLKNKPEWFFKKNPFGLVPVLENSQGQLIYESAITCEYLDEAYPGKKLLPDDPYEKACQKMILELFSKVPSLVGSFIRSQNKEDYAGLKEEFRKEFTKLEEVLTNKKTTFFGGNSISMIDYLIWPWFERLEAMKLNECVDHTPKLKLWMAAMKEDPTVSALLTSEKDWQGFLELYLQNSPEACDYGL
Kind of experiment: GSTO1 substrate assay (reduction of 4-NPG). To be noted: for IC50: read-out: GSTO substrate assay IC50, cluster screening tables.
Description: For activity screening, we adapted a GSTO1 substrate assay that relies on the quantification of the reduction of S-(4-nitrophenacyl)glutathione (4-NPG), a GSTO1-specific substrate[17], using recombinant human GSTO1 in a high-throughput screening format.
Enzyme activity was measured by monitoring the reduction of 4-NPG to 4-nitroacetophenone by GSTO1.

Experiment [2] addresses T1, GSTO1. Briefly: In-gel fluorescence competitive CMFDA binding assay, recombinant GSTO1. Particulars: inhibition of CMFDA binding.
Excerpt: (§1) Primary screening of GSTO inhibitors was based on competitive inhibition of CMFDA binding to endogenous GSTO. Briefly, HCT116^p53+/+ cells (4 × 10^4 per well) were coated in a 12-well plate. […] Cells were then washed with PBS and lysed using Cell Lytic M buffer (Sigma). […] Gels were immediately scanned on a Typhoon variable mode imager (Amersham Bioscience). Quantification of fluorescent band intensity was done using Image Quant 5.2 software.
The next experiment addresses T2, endogenous GSTO1 (Homo sapiens, UniProt P78417).
T2 sequence (P78417 1-241): T1 sequence (P78417 1-241)
Briefly: In-gel fluorescence competitive CMFDA binding assay, endogenous GSTO1 in HCT116. To be noted: 10 µM; inhibition of CMFDA binding, HCT116.

Excerpt for endogenous GSTO1: as §1

In the case of `O=C(CCl)Nc1cc(C2CC2)nn1-c1ccccc1` [C2-5], the “% Inhibition of HCT116p53+/+ cell proliferation at 10 µM” value with HCT116p53+/+ cell is -2.7% and -8.6%. On GSTO1 [1], the “GSTO substrate assay % Inhibition at 10 µM” value worked out at 4.4%. The “GSTO binding assay (% Inhibition at 10 µM) Recombinant” value at GSTO1 [2] is 64.1%. Also, the “GSTO binding assay (% Inhibition at 10 µM) Endogenous” value at endogenous GSTO1 was determined as 69.4%.

In the case of `CC1CCN(c2ccc(NC(=O)CCl)cc2)CC1` [C1-19], the “% Inhibition of HCT116p53+/+ cell proliferation at 10 µM” value in the experiment on HCT116p53+/+ cell was 79.2% and 85.4%. Also, the “GSTO substrate assay % Inhibition at 10 µM” value at GSTO1 [1] was found to be 61.5%. For the same molecule, the “GSTO binding assay (% Inhibition at 10 µM) Recombinant” value on GSTO1 [2] is reported as 38.3%. For the same molecule, the “GSTO binding assay (% Inhibition at 10 µM) Endogenous” value at endogenous GSTO1 is 65.7%.

As to `CCN(CC(=O)NC1CCS(=O)(=O)C1)C(=O)CCl` (stereo not drawn) [C4-13], the “% Inhibition of HCT116p53+/+ cell proliferation at 10 µM” value with HCT116p53+/+ cell was 62.3% and 67.3%. Also, the “GSTO substrate assay % Inhibition at 10 µM” value at GSTO1 [1] turned out to be 27.2%. Moreover, the “GSTO binding assay (% Inhibition at 10 µM) Recombinant” value at GSTO1 [2] was found to be 5.1%. Moreover, the “GSTO binding assay (% Inhibition at 10 µM) Endogenous” value on endogenous GSTO1 was found to be 7.3%.

As for `O=C(CCl)Nc1ccccc1C(=O)NCc1ccco1` [C1-13], in the experiment on HCT116p53+/+ cell, the “% Inhibition of HCT116p53+/+ cell proliferation at 10 µM” value is 14.3% and 6.6%. In addition, the “GSTO substrate assay % Inhibition at 10 µM” value at GSTO1 [1] came to 62.2%. Besides, the “GSTO binding assay (% Inhibition at 10 µM) Recombinant” value on GSTO1 [2] was found to be 35.2%. The “GSTO binding assay (% Inhibition at 10 µM) Endogenous” value on endogenous GSTO1 was found to be 61.1%.

As for `CCN(Cc1ccc2c(c1)OCO2)C(=O)CCl` [C4-11], the “% Inhibition of HCT116p53+/+ cell proliferation at 10 µM” value in the experiment with HCT116p53+/+ cell is given as 2.8%. Besides, on GSTO1 [1], the “GSTO substrate assay % Inhibition at 10 µM” value was 103.4% and the IC50 was determined as 2.36 µM. In addition, the “GSTO binding assay (% Inhibition at 10 µM) Recombinant” value on GSTO1 [2] worked out at 60.0%. The “GSTO binding assay (% Inhibition at 10 µM) Endogenous” value on endogenous GSTO1 is reported as 51.8%.

With `CN(CC1COc2ccccc2O1)C(=O)CCl` (stereo not drawn) [C4-8], in the experiment on HCT116p53+/+ cell, the “% Inhibition of HCT116p53+/+ cell proliferation at 10 µM” value is on record as 70.7%. For the same molecule, on GSTO1 [1], the “GSTO substrate assay % Inhibition at 10 µM” value was 97.2% and the IC50 amounted to 0.237 µM. The “GSTO binding assay (% Inhibition at 10 µM) Recombinant” value at GSTO1 [2] is recorded as 59.5%. Also, on endogenous GSTO1, the “GSTO binding assay (% Inhibition at 10 µM) Endogenous” value came to 53.0%.

On to `O=C(CCl)Nc1cc(C(F)(F)F)ccc1N1CCCC1` [C1-17], for which the “% Inhibition of HCT116p53+/+ cell proliferation at 10 µM” value with HCT116p53+/+ cell was 94.8% and 91%. Besides, the “GSTO substrate assay % Inhibition at 10 µM” value at GSTO1 [1] is 88.5%. Also, the “GSTO binding assay (% Inhibition at 10 µM) Recombinant” value on GSTO1 [2] was -4.1%. At endogenous GSTO1, the “GSTO binding assay (% Inhibition at 10 µM) Endogenous” value is on record as -9.5%.

For the molecule `O=C(CCl)Nc1nc2cc3c(cc2s1)OCCO3` [C2-27], the “% Inhibition of HCT116p53+/+ cell proliferation at 10 µM” value in the experiment with HCT116p53+/+ cell is 42.6% and 38.2%. Moreover, on GSTO1 [1], the “GSTO substrate assay % Inhibition at 10 µM” value is 85.1% and the IC50 was found to be 8.67 µM. In addition, at GSTO1 [2], the “GSTO binding assay (% Inhibition at 10 µM) Recombinant” value turned out to be 69.0%. Further, the “GSTO binding assay (% Inhibition at 10 µM) Endogenous” value on endogenous GSTO1 came out at 59.6%.

Take `O=C(CCl)NNc1c(Cl)cc(Cl)cc1Cl` [C3-17]: the “% Inhibition of HCT116p53+/+ cell proliferation at 10 µM” value with HCT116p53+/+ cell is 7.4%. Besides, the “GSTO substrate assay % Inhibition at 10 µM” value at GSTO1 [1] is 61.9%. In addition, on GSTO1 [2], the “GSTO binding assay (% Inhibition at 10 µM) Recombinant” value turned out to be 57.6%. In addition, the “GSTO binding assay (% Inhibition at 10 µM) Endogenous” value on endogenous GSTO1 turned out to be 39.3%.

For the molecule `CN(CCCNC(=O)CCl)c1ccccc1` [C3-16], the “% Inhibition of HCT116p53+/+ cell proliferation at 10 µM” value with HCT116p53+/+ cell is 28.7%. Besides, the “GSTO substrate assay % Inhibition at 10 µM” value at GSTO1 [1] is on record as 83.1%. The “GSTO binding assay (% Inhibition at 10 µM) Recombinant” value on GSTO1 [2] is 23.7%. In addition, the “GSTO binding assay (% Inhibition at 10 µM) Endogenous” value on endogenous GSTO1 is recorded as 45.4%.

On to `COc1cc(NC(=O)CCl)c(Cl)cc1C(=O)O` [C1-10], for which, in the experiment with HCT116p53+/+ cell, the “% Inhibition of HCT116p53+/+ cell proliferation at 10 µM” value is recorded as 19.7%. Further, at GSTO1 [1], the “GSTO substrate assay % Inhibition at 10 µM” value is 81.7%. The “GSTO binding assay (% Inhibition at 10 µM) Recombinant” value on GSTO1 [2] turned out to be 49.1%. For the same molecule, at endogenous GSTO1, the “GSTO binding assay (% Inhibition at 10 µM) Endogenous” value came to 49.7%.

Consider `CCOc1cc2c(cc1CNC(=O)CCl)OC(C)C2` (stereo not drawn) [C3-5], for which, in the experiment on HCT116p53+/+ cell, the “% Inhibition of HCT116p53+/+ cell proliferation at 10 µM” value is 64.1% and 63.6%. For the same molecule, on GSTO1 [1], the “GSTO substrate assay % Inhibition at 10 µM” value came out at 85.1%. Also, the “GSTO binding assay (% Inhibition at 10 µM) Recombinant” value at GSTO1 [2] is reported as 14.7%. In addition, the “GSTO binding assay (% Inhibition at 10 µM) Endogenous” value on endogenous GSTO1 is given as 31.8%.

For `O=C(CCl)Nc1cc([N+](=O)[O-])ccc1Nc1ccc(F)cc1` [C1-4], the “% Inhibition of HCT116p53+/+ cell proliferation at 10 µM” value in the experiment with HCT116p53+/+ cell was determined as 80.6%. The “GSTO substrate assay % Inhibition at 10 µM” value at GSTO1 [1] is reported as 92.5%. In addition, the “GSTO binding assay (% Inhibition at 10 µM) Recombinant” value at GSTO1 [2] was determined as 81.5%. The “GSTO binding assay (% Inhibition at 10 µM) Endogenous” value on endogenous GSTO1 amounted to 31.8%.

As for `CN(Cc1cnn(-c2ccccc2)c1)C(=O)CCl` [C4-10], the “% Inhibition of HCT116p53+/+ cell proliferation at 10 µM” value with HCT116p53+/+ cell is given as 82.1%. In addition, at GSTO1 [1], the “GSTO substrate assay % Inhibition at 10 µM” value was 99.5% and the IC50 worked out at 1.95 µM. For the same molecule, the “GSTO binding assay (% Inhibition at 10 µM) Recombinant” value on GSTO1 [2] was 66.4%. Moreover, on endogenous GSTO1, the “GSTO binding assay (% Inhibition at 10 µM) Endogenous” value is recorded as 53.1%.

What is called IC50 is the concentration that gives 50% inhibition.
